Laboratory results published in US4596802A, “Thiadiazole derivatives active on the central nervous system and pharmaceutical compositions” (Sanofi, priority 1984, dated 1986).

How the values were obtained:
[1] = test system: trembling induced by L-5-HTP; test: Potentiation of the trembling induced by L-5-HTP; format: in vivo, female CD1 mice; conditions: Mus musculus, ip; mice, intraperitoneal, 1 hour before L-5-HTP 200 mg/kg i.p.; observed 20 minutes; read-out: ED50 (dose which induces trembling in 50% of the animals treated)
Description: Its injection into mice causes a behavioral syndrome characterized in particular by violent trembling. Antidepressants which inhibit the recapture of serotonin or monoamine oxidase inhibitors (MAOI) potentiate this effect of […], 1959). The protocol described by […] (Biochem. Pharmacol., 2, 290-298, 1959) was used. […] The results are expressed as ED50, i.e. the dose which induces trembling in 50% of the animals treated.

[2] = test system: ptosis induced by reserpine; test: Antagonism of the ptosis induced by reserpine; format: in vivo, female CD1 mice; conditions: Mus musculus, ip; mice, intraperitoneal; reserpine 2 mg/kg i.v. simultaneously; read at 1 hour; read-out: ED50 (dose which completely blocks the ptosis induced by reserpine in 50% of the animals)
Procedure: This test, described by GOURET et al. (Journal de Pharmacologie, Paris, 8, 333-350, 1977), was performed on female CD1 mice (Charles River) weighing 20±1 g. Reserpine causes ptosis 1 hour after intravenous administration; the majority of antidepressants oppose this ptosis. The following protocol was chosen. The substances to be studied were administered intraperitoneally and the reserpine was simultaneously administered intravenously at a dose of 2 mg/kg. […] This test was performed on groups of 10 mice; the results are expressed as ED50 (50% effective dose), i.e. the dose which completely blocks the ptosis induced by reserpine in 50% of the animals.

dopaminergic receptors = test: Rotation behavior, unilateral striatal lesion by 6-hydroxydopamine; format: in vivo, female CD1 mice; conditions: Mus musculus, ip; mice, intraperitoneal, 1 hour after administration, rotations over 2 minutes; read-out: MED (minimum dose necessary to cause a significant reduction in the number of ipsilateral rotations)
Procedure: This test is the one described by PROTAIS et al. (Journal de Pharmacologie,Paris, 7, 251-255, 1976). Female mice (Charles River, CD1) weighing from 25 to 30 g were subjected beforehand to a unilateral lesion of the striatum by the stereotaxic injection of 6-hydroxydopamine at a rate of 8 μg per animal. One week after this operation, the products were administered intraperitoneally to groups of 7 mice. 1 hour after administration of the product, the number of rotations was evaluated for 2 minutes. The rotations on the same side as the lesion were counted as positive and those on the opposite side as negative. The algebraic sum of the rotations for one group of treated animals was compared with that of the group of control animals which had only received the vehicle (aqueous solution of gum). In this test, stimulants of the dopaminergic receptors (apomorphine type) reduce the spontaneous rotations whereas indirect dopaminomimetic agents (amphetamine type) increase them. The results are expressed as MED (minimum effective dose), i.e. the minimum dose necessary to cause a significant reduction (Student's t-test) in the number of ipsilateral rotations spontaneously observed in the control animals.

[3] = Acute toxicity, mortality within 24 hours, intraperitoneal; conditions: mouse, in vivo, ip, mice, dose of 300 mg/kg
Procedure: The products to be studied were administered intraperitoneally in increasing doses to groups of 10 mice (CD1, Charles River; 20±1 g).
From the results obtained, the 50% lethal dose, i.e. the dose causing the death of 50% of the animals, was determined for each of the products studied.

Structure (SMILES): Clc1ccc(-c2nnc(NCCN3CCOCC3)s2)cc1 [SR 95340 A]
- ED50 [1]: 3.6 mg/kg
- ED50 [2]: 8.8 mg/kg

Structure (SMILES): COc1ccc(-c2nnc(NCCN3CCOCC3)s2)cc1OC [SR 43295, 2-(2-morpholinoethylamino)-5-(3,4-dimethoxyphenyl)-1,3,4-thiadiazole]
- minimal effective dose (dopaminergic receptors): 0.1 mg/kg

Structure (SMILES): C1CCC(c2nnc(NCCN3CCOCC3)s2)C1 [SR 43057 A]
- ED50 [2]: 23 mg/kg

Structure (SMILES): c1ccc(-c2ccc(-c3nnc(NCCN4CCOCC4)s3)cc2)cc1 [SR 43294]
- minimal effective dose (dopaminergic receptors): 0.1 mg/kg

Structure (SMILES): COc1ccc(-c2nnc(NCCN3CCOCC3)s2)cc1 [SR 43198, 2-(2-morpholinoethylamino)-5-(4-methoxyphenyl)-1,3,4-thiadiazole]
- ED50 [1]: 7 mg/kg

Structure (SMILES): Clc1cccc(-c2nnc(NCCN3CCOCC3)s2)c1 [SR 95396 A]
- ED50 [2]: 11.3 mg/kg
- minimal effective dose (dopaminergic receptors): 0.1 mg/kg

Structure (SMILES): FC(F)(F)c1cccc(-c2nnc(NCCN3CCOCC3)s2)c1 [SR 43531 A]
- ED50 [1]: 7.8 mg/kg

Structure (SMILES): Cl.Cl.Oc1ccc(-c2nnc(NCCN3CCOCC3)s2)cc1 [SR 43202 A, 2-(2-Morpholinoethylamino)-5-(4-hydroxyphenyl)-1,3,4-thiadiazole dihydrochloride]
- minimal effective dose (dopaminergic receptors): 0.1 mg/kg

Structure (SMILES): C1CCC(c2nnc(NCCN3CCOCC3)s2)CC1 [SR 43058, 2-(2-Morpholinoethylamino)-5-cyclohexyl-1,3,4-thiadiazole]
- ED50 [1]: 17 mg/kg
- ED50 [2]: 22 mg/kg

Structure (SMILES): CN(C)CCNc1nnc(-c2ccccc2)s1 [Compound A, reference compound]
- mortality at 24 h [3]: 70%
- ED50 [2]: 32 mg/kg

Structure (SMILES): Cl.Cl.Oc1ccc(-c2nnc(NCCN3CCOCC3)s2)cc1O [SR 43296 A, 2-(2-Morpholinoethylamino)-5-(3,4-dihydroxyphenyl)-1,3,4-thiadiazole dihydrochloride]
- minimal effective dose (dopaminergic receptors): 0.1 mg/kg

Structure (SMILES): c1ccc2c(-c3nnc(NCCN4CCOCC4)s3)cccc2c1 [SR 95559 A]
- minimal effective dose (dopaminergic receptors): 0.1 mg/kg

Structure (SMILES): Cl.Cl.c1ccc(-c2nnc(NCCN3CCOCC3)s2)cc1 [SR 95311 A, 2-(2-Morpholinoethylamino)-5-phenyl-1,3,4-thiadiazole dihydrochloride]
- ED50 [1]: 6 mg/kg
- ED50 [2]: 4.6 mg/kg
- minimal effective dose (dopaminergic receptors): 0.1 mg/kg

Structure (SMILES): CCN(CC)CCNc1nnc(-c2ccccc2)s1 [Compound B, reference compound]
- mortality at 24 h [3]: 90%
- ED50 [2]: 43 mg/kg

Structure (SMILES): FC(F)(F)c1ccc(-c2nnc(NCCN3CCOCC3)s2)cc1 [SR 43604]
- minimal effective dose (dopaminergic receptors): 0.1 mg/kg

Structure (SMILES): Clc1ccccc1-c1nnc(NCCN2CCOCC2)s1 [SR 95397 A]
- ED50 [1]: 14.5 mg/kg
- ED50 [2]: 18 mg/kg
- minimal effective dose (dopaminergic receptors): 0.1 mg/kg

Structure (SMILES): O=[N+]([O-])c1ccc(-c2nnc(NCCN3CCOCC3)s2)cc1 [SR 43530]
- ED50 [1]: 6.2 mg/kg
- minimal effective dose (dopaminergic receptors): 0.1 mg/kg
